Reference: PubChem BioAssay (NCI)
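Cells were grown in 96-well plates and exposed to each compound for 48 hours at five concentrations; endpoints were interpolated linearly between bracketing concentrations, or set to the highest concentration if not reached. At the TGI there is no net growth.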

Assays:
Assay in all cases: NCI-60 cell line screen, 48 h
[1] = tested on: M14 melanoma
[2] = tested on: T-47D breast
[3] = tested on: SN12C renal
[4] = tested on: NCI-H226 lung
[5] = tested on: MDA-N
[6] = tested on: BT-549 breast
[7] = tested on: SF-268 CNS
[8] = tested on: HL-60(TB) leukemia
[9] = tested on: SK-OV-3 ovarian
[10] = tested on: SK-MEL-28 melanoma
[11] = tested on: KM12 colon
[12] = tested on: EKVX NSCLC
[13] = tested on: OVCAR-3 ovarian
[14] = tested on: HS 578T breast
[15] = tested on: HCT-15 colon
[16] = tested on: OVCAR-5 ovarian
[17] = tested on: A549 NSCLC
[18] = tested on: HOP-92 NSCLC
[19] = tested on: SF-295 CNS
[20] = tested on: 786-0 renal
[21] = tested on: NCI-H522 lung
[22] = tested on: HCC-2998 colon
[23] = tested on: SW-620 colon
[24] = tested on: UACC-257 melanoma
[25] = tested on: SNB-75 CNS
[26] = tested on: MOLT-4 leukemia
[27] = tested on: SK-MEL-2 melanoma
[28] = tested on: NCI-H23 lung
[29] = tested on: UO-31 renal
[30] = tested on: NCI-H460 lung
[31] = tested on: LOX IMVI melanoma
[32] = tested on: UACC-62 melanoma
[33] = tested on: HCT-116 colon
[34] = tested on: SK-MEL-5 melanoma
[35] = tested on: MDA-MB-231 breast
[36] = tested on: HT29 colon
[37] = tested on: U251 CNS
[38] = tested on: PC-3 prostate
[39] = tested on: OVCAR-8 ovarian
[40] = tested on: SR leukemia
[41] = tested on: COLO 205 colon
[42] = tested on: SF-539 CNS
[43] = tested on: MCF7 breast
[44] = tested on: TK-10 renal
[45] = tested on: K-562 leukemia
[46] = tested on: OVCAR-4 ovarian
[47] = tested on: NCI/ADR-RES ovarian
[48] = tested on: RPMI-8226 leukemia
[49] = tested on: SNB-19 CNS
[50] = tested on: HOP-62 NSCLC
[51] = tested on: MDA-MB-435
[52] = tested on: CAKI-1 renal
[53] = tested on: MALME-3M melanoma
[54] = tested on: IGROV1 ovarian
[55] = tested on: RXF 393 renal
[56] = tested on: CCRF-CEM leukemia
[57] = tested on: ACHN renal
[58] = tested on: DU-145 prostate
[59] = tested on: A498 renal

COc1cc(/C=C2\C[C@H]3[C@@H]4CC=C5C[C@@H](OC(C)=O)CC[C@]5(C)[C@H]4CC[C@]3(C)\C2=N\O)cc(OC)c1OC
TGI [1]: > 100 µM
TGI [2]: 5.22 µM
TGI [3]: > 100 µM
TGI [4]: > 100 µM
TGI [5]: > 100 µM
TGI [6]: > 90.8 µM
TGI [7]: > 100 µM
TGI [8]: 15.8 µM
TGI [9]: > 100 µM
TGI [10]: > 72.1 µM
TGI [11]: > 100 µM
TGI [12]: > 81.9 µM
TGI [13]: > 100 µM
TGI [14]: > 100 µM
TGI [15]: > 100 µM
TGI [16]: > 100 µM
TGI [17]: > 100 µM
TGI [18]: 9.43 µM
TGI [19]: 13 µM
TGI [20]: > 43.3 µM
TGI [21]: > 49.8 µM
TGI [22]: > 100 µM
TGI [23]: > 100 µM
TGI [24]: > 100 µM
TGI [25]: > 43.3 µM
TGI [26]: > 25.5 µM
TGI [27]: 76.6 µM
TGI [28]: > 100 µM
TGI [29]: 95 µM
TGI [30]: > 100 µM
TGI [31]: 38.4 µM
TGI [32]: 45.6 µM
TGI [33]: > 100 µM
TGI [34]: 14.7 µM
TGI [35]: > 100 µM
TGI [36]: > 68.4 µM
TGI [37]: > 86.3 µM
TGI [38]: 18.6 µM
TGI [39]: > 100 µM
TGI [40]: 14.8 µM
TGI [41]: 17.8 µM
TGI [42]: > 92.4 µM
TGI [43]: > 100 µM
TGI [44]: > 100 µM
TGI [45]: > 100 µM
TGI [46]: > 83.7 µM
TGI [47]: > 88.9 µM
TGI [48]: 3.08 µM
TGI [49]: > 100 µM
TGI [50]: > 100 µM
TGI [51]: > 91.3 µM
TGI [52]: > 60.2 µM
TGI [53]: > 60.9 µM
TGI [54]: > 100 µM
TGI [55]: 4.28 µM
TGI [56]: > 30.6 µM
TGI [57]: > 32.8 µM
TGI [58]: > 100 µM

O=C(CSc1nnc(-c2ccccn2)s1)N/N=C/c1ccc([N+](=O)[O-])cc1
TGI [1]: > 100 µM
TGI [2]: > 100 µM
TGI [3]: > 100 µM
TGI [4]: > 100 µM
TGI [5]: > 100 µM
TGI [6]: > 100 µM
TGI [7]: 71.9 µM
TGI [8]: > 100 µM
TGI [9]: > 100 µM
TGI [10]: > 100 µM
TGI [11]: > 100 µM
TGI [59]: 75.3 µM
TGI [13]: > 100 µM
TGI [14]: > 100 µM
TGI [15]: > 100 µM
TGI [16]: > 100 µM
TGI [17]: > 100 µM
TGI [18]: 42.3 µM
TGI [19]: > 100 µM
TGI [20]: > 100 µM
TGI [21]: > 100 µM
TGI [23]: > 100 µM
TGI [24]: > 100 µM
TGI [25]: 10.3 µM
TGI [26]: > 100 µM
TGI [27]: > 100 µM
TGI [28]: > 100 µM
TGI [29]: 4.19 µM
TGI [30]: > 100 µM
TGI [31]: > 100 µM
TGI [32]: > 100 µM
TGI [33]: > 100 µM
TGI [34]: > 100 µM
TGI [35]: 49.1 µM
TGI [36]: > 100 µM
TGI [37]: 41.2 µM
TGI [38]: > 100 µM
TGI [39]: > 100 µM
TGI [40]: > 100 µM
TGI [41]: > 100 µM
TGI [42]: > 100 µM
TGI [43]: > 100 µM
TGI [44]: 79 µM
TGI [45]: > 100 µM
TGI [46]: > 100 µM
TGI [47]: > 100 µM
TGI [49]: 92.5 µM
TGI [50]: > 100 µM
TGI [51]: > 100 µM
TGI [52]: > 100 µM
TGI [53]: > 100 µM
TGI [54]: > 100 µM
TGI [55]: 37.3 µM
TGI [56]: > 100 µM
TGI [57]: > 100 µM
TGI [58]: 49.5 µM

CC(C)(C)C1=NC(=P(c2ccccc2)(c2ccccc2)c2ccccc2)C(=O)O1
TGI [1]: > 100 µM
TGI [2]: > 100 µM
TGI [3]: > 100 µM
TGI [4]: > 100 µM
TGI [5]: > 100 µM
TGI [6]: > 100 µM
TGI [7]: > 100 µM
TGI [8]: > 100 µM
TGI [9]: > 100 µM
TGI [10]: > 100 µM
TGI [11]: > 100 µM
TGI [12]: > 100 µM
TGI [59]: > 100 µM
TGI [14]: > 100 µM
TGI [16]: > 100 µM
TGI [17]: > 100 µM
TGI [18]: > 100 µM
TGI [19]: > 100 µM
TGI [20]: > 100 µM
TGI [21]: 90.8 µM
TGI [23]: > 100 µM
TGI [24]: > 100 µM
TGI [25]: 56.5 µM
TGI [26]: > 100 µM
TGI [27]: > 100 µM
TGI [28]: > 100 µM
TGI [29]: > 100 µM
TGI [31]: > 100 µM
TGI [32]: > 100 µM
TGI [33]: > 100 µM
TGI [34]: > 100 µM
TGI [35]: > 100 µM
TGI [36]: > 100 µM
TGI [37]: > 100 µM
TGI [38]: > 100 µM
TGI [39]: > 100 µM
TGI [40]: > 100 µM
TGI [41]: > 100 µM
TGI [43]: > 100 µM
TGI [44]: > 100 µM
TGI [45]: > 100 µM
TGI [47]: > 100 µM
TGI [48]: > 100 µM
TGI [49]: > 100 µM
TGI [50]: > 100 µM
TGI [51]: > 100 µM
TGI [52]: > 100 µM
TGI [53]: > 100 µM
TGI [54]: > 100 µM
TGI [55]: > 100 µM
TGI [56]: > 100 µM
TGI [57]: > 100 µM
TGI [58]: > 100 µM
